Test results taken from patent US20250257086A1, “EGFR DEGRADATION AGENT” (Beijing Tide Pharmaceutical Co., Ltd., priority 2022, published 2025).

Target: Ba/F3 (EGFR^L858R/T790M/C797S) cells (Homo sapiens, UniProt P00533, T790M/C797S/L858R, cells depend on it)
Assay: Antiproliferative activity on Ba/F3 (EGFR L858R/T790M/C797S) cells (CTG)
Format: cell-based
Conditions: 72h incubation, CTG luminescence, read-out: IC50 (nM), antiproliferative activity
Protocol: 30 nL of the compound dilution was added to a 384-well plate by Echo (Labcyte, Echo550).
The percent inhibition rate (% inhibition) was calculated by the following formula
[formula] • LUMcmpd: Luminescence value of assay compound. • LUMpositive: Average LUM value of positive drug with a concentration of 10 μM. • LUMvehicle: Average LUM value of negative control group without drug treatment.
The nonlinear regression curve (dose response-variable slope) between the value of inhibition rate (%) and the logarithm of compound concentration was fitted with graphpad prism 8.0, the effect dose curve of compound was drawn, and the IC50 value was calculated.
Y=Bottom+(Top−Bottom)/(1+10^((Log IC50−X)*HillSlope)) • X-axis: logarithm of compound concentration; Y axis: inhibition rate (% inhibition).

Sequence of Ba/F3 (EGFR^L858R/T790M/C797S) cells (P00533 whole entry T790M/C797S/L858R): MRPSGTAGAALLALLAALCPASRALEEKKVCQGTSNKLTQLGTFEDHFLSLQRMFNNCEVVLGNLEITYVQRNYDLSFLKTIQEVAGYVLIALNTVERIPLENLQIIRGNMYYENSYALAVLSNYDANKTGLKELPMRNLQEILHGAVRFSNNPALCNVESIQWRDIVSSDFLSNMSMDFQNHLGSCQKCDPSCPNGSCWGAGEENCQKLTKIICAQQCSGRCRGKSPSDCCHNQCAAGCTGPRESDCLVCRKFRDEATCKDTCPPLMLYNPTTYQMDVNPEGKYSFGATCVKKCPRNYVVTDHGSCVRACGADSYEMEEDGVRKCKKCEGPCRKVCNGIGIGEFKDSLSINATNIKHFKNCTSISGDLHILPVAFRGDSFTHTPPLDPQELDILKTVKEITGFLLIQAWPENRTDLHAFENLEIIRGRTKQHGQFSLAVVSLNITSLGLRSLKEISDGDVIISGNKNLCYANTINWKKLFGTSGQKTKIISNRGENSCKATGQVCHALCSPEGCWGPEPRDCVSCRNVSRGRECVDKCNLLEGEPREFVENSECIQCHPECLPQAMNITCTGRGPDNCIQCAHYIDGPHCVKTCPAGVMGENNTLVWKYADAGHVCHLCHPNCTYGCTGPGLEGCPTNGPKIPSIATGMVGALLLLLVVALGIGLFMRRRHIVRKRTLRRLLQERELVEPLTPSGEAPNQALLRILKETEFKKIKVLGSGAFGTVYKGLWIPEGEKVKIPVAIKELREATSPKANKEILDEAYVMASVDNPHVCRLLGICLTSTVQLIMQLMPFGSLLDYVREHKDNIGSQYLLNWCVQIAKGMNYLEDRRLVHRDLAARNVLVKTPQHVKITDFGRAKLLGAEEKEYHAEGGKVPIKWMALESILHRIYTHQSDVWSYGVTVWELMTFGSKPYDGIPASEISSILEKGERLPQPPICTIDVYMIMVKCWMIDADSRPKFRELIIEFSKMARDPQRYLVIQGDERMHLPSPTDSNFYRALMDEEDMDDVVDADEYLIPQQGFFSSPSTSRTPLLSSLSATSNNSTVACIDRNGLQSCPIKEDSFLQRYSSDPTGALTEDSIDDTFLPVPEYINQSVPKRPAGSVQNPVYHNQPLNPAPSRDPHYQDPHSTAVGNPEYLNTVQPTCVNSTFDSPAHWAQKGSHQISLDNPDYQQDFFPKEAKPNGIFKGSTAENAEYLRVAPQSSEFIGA

GI50 [nM] | SMILES
20.6 | COc1cc(N2CCC(N3CCN(CCCC#Cc4cccc5c4CN(C4CCC(=O)NC4=O)C5=O)CC3)CC2)c(NC(=O)/C=C/C(F)(F)F)cc1Nc1ncc(Cl)c(Nc2ccc3nccnc3c2P(C)(C)=O)n1 (stereo not shown) [Compound D673, (E)-N-(5-((5-chloro-4-((5-(dimethylphosphoryl)quinoxalin-6-yl)amino)pyrimidin-2-yl)amino)-2-(4-(4-(5-(2-(2,6-dioxopiperidin-3-yl)-1-oxoisoindolin-4-yl)pent-4-yn-1-yl)piperazin-1-yl)piperidin-1-yl)-4-methoxyphenyl)-4,4,4-trifluorobut-2-enamide]
24.1 | COc1cc(N2CCC(N3CCN(CCCC#Cc4cccc5c4CN(C4CCC(=O)NC4=O)C5=O)CC3)CC2)c(NC(=O)/C=C/C(F)(F)F)cc1Nc1ncc(Cl)c(Nc2ccc3c(c2P(C)(C)=O)OCCO3)n1 (stereo not shown) [Compound D684]
22.5 | CC#CC(=O)Nc1cc(Nc2ncc(Cl)c(Nc3ccc4c(c3P(C)(C)=O)OCCO4)n2)c(OC)cc1N1CCC(N2CCN(CCCC#Cc3cccc4c3CN(C3CCC(=O)NC3=O)C4=O)CC2)CC1 (stereo not shown) [Compound D685]
10.2 | COc1cc(N2CCC(N3CCN(CCCC#Cc4cccc5c4CN(C4CCC(=O)NC4=O)C5=O)CC3)CC2)c(C)cc1Nc1ncc(Br)c(Nc2ccc3nccnc3c2NS(C)(=O)=O)n1 (stereo not shown) [Compound D741, N-(6-((5-bromo-2-((4-(4-(4-(5-(2-(2,6-dioxopiperidin-3-yl)-1-oxoisoindolin-4-yl)pent-4-yn-1-yl)piperazin-1-yl)piperidin-1-yl)-2-methoxy-5-methylphenyl)amino)pyrimidin-4-yl)amino)quinoxalin-5-yl)methanesulfonamide]
3.36 | C=C(F)C(=O)Nc1cc(Nc2ncc(C(F)(F)F)c(Nc3ccccc3P(C)(C)=O)n2)c(OC)cc1N1CCC(N2CCN(CCCC#Cc3cccc4c3CN(C3CCC(=O)NC3=O)C4=O)CC2)CC1 (stereo not shown) [Compound D746, N-(5-((4-((2-(dimethylphosphoryl)phenyl)amino)-5-(trifluoromethyl)pyrimidin-2-yl)amino)-2-(4-(4-(5-(2-(2,6-dioxopiperidin-3-yl)-1-oxoisoindolin-4-yl)pent-4-yn-1-yl)piperazin-1-yl)piperidin-1-yl)-4-methoxyphenyl)-2-fluoroacrylamide]
8.77 | COc1cc(N2CCC(N3CCN(CCCC#Cc4cccc5c4CN(C4CCC(=O)NC4=O)C5=O)CC3)CC2)c(NC(=O)/C=C/C(F)(F)F)cc1Nc1ncc(C(F)(F)F)c(Nc2ccccc2P(C)(C)=O)n1 (stereo not shown) [Compound D747, (E)-N-(5-((4-((2-(dimethylphosphoryl)phenyl)amino)-5-(trifluoromethyl)pyrimidin-2-yl)amino)-2-(4-(4-(5-(2-(2,6-dioxopiperidin-3-yl)-1-oxoisoindolin-4-yl)pent-4-yn-1-yl)piperazin-1-yl)piperidin-1-yl)-4-methoxyphenyl)-4,4,4-trifluorobut-2-enamide]
7.76 | CC#CC(=O)Nc1cc(Nc2ncc(C(F)(F)F)c(Nc3ccccc3P(C)(C)=O)n2)c(OC)cc1N1CCC(N2CCN(CCCC#Cc3cccc4c3CN(C3CCC(=O)NC3=O)C4=O)CC2)CC1 (stereo not shown) [Compound D748, N-(5-((4-((2-(dimethylphosphoryl)phenyl)amino)-5-(trifluoromethyl)pyrimidin-2-yl)amino)-2-(4-(4-(5-(2-(2,6-dioxopiperidin-3-yl)-1-oxoisoindolin-4-yl)pent-4-yn-1-yl)piperazin-1-yl)piperidin-1-yl)-4-methoxyphenyl)but-2-ynamide]

The next lines start with the molecule.

SMILES | GI50 [nM]
COc1cc(N2CCC(N3CCN(CCCC#Cc4cccc5c4CN(C4CCC(=O)NC4=O)C5=O)CC3)CC2)c(NC(=O)C=C(C)C)cc1Nc1ncc(Cl)c(Nc2ccccc2P(C)(C)=O)n1 (stereo not shown) [Compound D633, N-(5-((5-chloro-4-((2-(dimethylphosphoryl)phenyl)amino)pyrimidin-2-yl)amino)-2-(4-(4-(5-(2-(2,6-dioxopiperidin-3-yl)-1-oxoisoindolin-4-yl)pent-4-yn-1-yl)piperazin-1-yl)piperidin-1-yl)-4-methoxyphenyl)-3-methylbut-2-enamide] | 56.5
CC#CC(=O)Nc1cc(Nc2ncc(Cl)c(Nc3ccccc3P(C)(C)=O)n2)ccc1N1CCC(N2CCN(CCCC#Cc3cccc4c3CN(C3CCC(=O)NC3=O)C4=O)CC2)CC1 (stereo not shown) [Compound D665, N-(5-((5-chloro-4-((2-(dimethylphosphoryl)phenyl)amino)pyrimidin-2-yl)amino)-2-(4-(4-(5-(2-(2,6-dioxopiperidin-3-yl)-1-oxoisoindolin-4-yl)pent-4-yn-1-yl)piperazin-1-yl)piperidin-1-yl)phenyl)but-2-ynamide] | 10.3
C=C(F)C(=O)Nc1cc(Nc2ncc(Cl)c(Nc3ccccc3P(C)(C)=O)n2)ccc1N1CCC(N2CCN(CCCC#Cc3cccc4c3CN(C3CCC(=O)NC3=O)C4=O)CC2)CC1 (stereo not shown) [Compound D666, N-(5-((5-chloro-4-((2-(dimethylphosphoryl)phenyl)amino)pyrimidin-2-yl)amino)-2-(4-(4-(5-(2-(2,6-dioxopiperidin-3-yl)-1-oxoisoindolin-4-yl)pent-4-yn-1-yl)piperazin-1-yl)piperidin-1-yl)phenyl)-2-fluoroacrylamide] | 13.7
CP(C)(=O)c1ccccc1Nc1nc(Nc2ccc(N3CCC(N4CCN(CCCC#Cc5cccc6c5CN(C5CCC(=O)NC5=O)C6=O)CC4)CC3)c(NC(=O)/C=C/C(F)(F)F)c2)ncc1Cl (stereo not shown) [Compound D667, (E)-N-(5-((5-chloro-4-((2-(dimethylphosphoryl)phenyl)amino)pyrimidin-2-yl)amino)-2-(4-(4-(5-(2-(2,6-dioxopiperidin-3-yl)-1-oxoisoindolin-4-yl)pent-4-yn-1-yl)piperazin-1-yl)piperidin-1-yl)phenyl)-4,4,4-trifluorobut-2-enamide] | 18.1
CCCC#CC(=O)Nc1cc(Nc2ncc(Cl)c(Nc3ccccc3P(C)(C)=O)n2)ccc1N1CCC(N2CCN(CCCC#Cc3cccc4c3CN(C3CCC(=O)NC3=O)C4=O)CC2)CC1 (stereo not shown) [Compound D668, N-(5-((5-chloro-4-((2-(dimethylphosphoryl)phenyl)amino)pyrimidin-2-yl)amino)-2-(4-(4-(5-(2-(2,6-dioxopiperidin-3-yl)-1-oxoisoindolin-4-yl)pent-4-yn-1-yl)piperazin-1-yl)piperidin-1-yl)phenyl)hex-2-ynamide] | 21.2
C=CC(=O)Nc1cc(Nc2ncc(Cl)c(Nc3ccc4nccnc4c3P(C)(C)=O)n2)c(OC)cc1N1CCC(N2CCN(CCCC#Cc3cccc4c3CN(C3CCC(=O)NC3=O)C4=O)CC2)CC1 (stereo not shown) [Compound D670, N-(5-((5-chloro-4-((5-(dimethylphosphoryl)quinoxalin-6-yl)amino)pyrimidin-2-yl)amino)-2-(4-(4-(5-(2-(2,6-dioxopiperidin-3-yl)-1-oxoisoindolin-4-yl)pent-4-yn-1-yl)piperazin-1-yl)piperidin-1-yl)-4-methoxyphenyl)acrylamide] | 25.7
C=C(F)C(=O)Nc1cc(Nc2ncc(Cl)c(Nc3ccc4nccnc4c3P(C)(C)=O)n2)c(OC)cc1N1CCC(N2CCN(CCCC#Cc3cccc4c3CN(C3CCC(=O)NC3=O)C4=O)CC2)CC1 (stereo not shown) [Compound D671, N-(5-((5-chloro-4-((5-(dimethylphosphoryl)quinoxalin-6-yl)amino)pyrimidin-2-yl)amino)-2-(4-(4-(5-(2-(2,6-dioxopiperidin-3-yl)-1-oxoisoindolin-4-yl)pent-4-yn-1-yl)piperazin-1-yl)piperidin-1-yl)-4-methoxyphenyl)-2-fluoroacrylamide] | 14.5
CC#CC(=O)Nc1cc(Nc2ncc(Cl)c(Nc3ccc4nccnc4c3P(C)(C)=O)n2)c(OC)cc1N1CCC(N2CCN(CCCC#Cc3cccc4c3CN(C3CCC(=O)NC3=O)C4=O)CC2)CC1 (stereo not shown) [Compound D672, N-(5-((5-chloro-4-((5-(dimethylphosphoryl)quinoxalin-6-yl)amino)pyrimidin-2-yl)amino)-2-(4-(4-(5-(2-(2,6-dioxopiperidin-3-yl)-1-oxoisoindolin-4-yl)pent-4-yn-1-yl)piperazin-1-yl)piperidin-1-yl)-4-methoxyphenyl)but-2-ynamide] | 15.1
C=C(F)C(=O)Nc1cc(Nc2ncc(Cl)c(Nc3ccc4c(c3P(C)(C)=O)OCCO4)n2)c(OC)cc1N1CCC(N2CCN(CCCC#Cc3cccc4c3CN(C3CCC(=O)NC3=O)C4=O)CC2)CC1 (stereo not shown) [Compound D682] | 14.6
C=CC(=O)Nc1cc(Nc2ncc(Cl)c(Nc3ccc4c(c3P(C)(C)=O)OCCO4)n2)c(OC)cc1N1CCC(N2CCN(CCCC#Cc3cccc4c3CN(C3CCC(=O)NC3=O)C4=O)CC2)CC1 (stereo not shown) [Compound D683] | 22.3
CCCC#CC(=O)Nc1cc(Nc2ncc(C(F)(F)F)c(Nc3ccccc3P(C)(C)=O)n2)c(OC)cc1N1CCC(N2CCN(CCCC#Cc3cccc4c3CN(C3CCC(=O)NC3=O)C4=O)CC2)CC1 (stereo not shown) [Compound D835, N-(5-((4-((2-(dimethylphosphoryl)phenyl)amino)-5-(trifluoromethyl)pyrimidin-2-yl)amino)-2-(4-(4-(5-(2-(2,6-dioxopiperidin-3-yl)-1-oxoisoindolin-4-yl)pent-4-yn-1-yl)piperazin-1-yl)piperidin-1-yl)-4-methoxyphenyl)hex-2-ynamide] | 11.9
CC#CC(=O)Nc1cc(Nc2ncc(Br)c(Nc3ccccc3P(C)(C)=O)n2)c(OCC(F)(F)F)cc1N1CCC(N2CCN(CCCC#Cc3cccc4c3CN(C3CCC(=O)NC3=O)C4=O)CC2)CC1 (stereo not shown) [Compound D845, N-(5-((5-bromo-4-((2-(dimethylphosphoryl)phenyl)amino)pyrimidin-2-yl)amino)-2-(4-(4-(5-(2-(2,6-dioxopiperidin-3-yl)-1-oxoisoindolin-4-yl)pent-4-yn-1-yl)piperazin-1-yl)piperidin-1-yl)-4-(2,2,2-trifluoroethoxy)phenyl)but-2-ynamide] | 16.9
